From patent US20100298138A1, “Aminoazoline and Urea Derivatives for Combating Animal Pests” (BASF SE, priority 2007, published 2010) come the findings set out here.

SMILES strings stand for the structures. Where only a bound is given, the exact number is not on record here.

Data set [1] deals with Silverleaf Whitefly (Bemisia argentifolii). Put plainly: whole plant or invertebrate. It counts as in vivo. Conditions: in Gossypium hirsutum, 72 h, 3 days after treatment, in comparison with untreated controls. The method, then: II.4 Silverleaf Whitefly (Bemisia argentifolii), Adult
The active compounds were formulated in 50:50 acetone:water and 100 ppm Kinetic® surfactant.
Selected cotton plants were grown to the cotyledon state (one plant per pot). The cotyledons were dipped into the test solution to provide complete coverage of the foliage and placed in a well-vented area to dry. Each pot with treated seedling was placed in a plastic cup and 10 to 12 whitefly adults (approximately 3-5 day old) were introduced. The insects were collected using an aspirator and an 0.6 cm, non-toxic Tygon® tubing (R-3603) connected to a barrier pipette tip. The tip, containing the collected insects, was then gently inserted into the soil containing the treated plant, allowing insects to crawl out of the tip to reach the foliage for feeding. The cups were covered with a reusable screened lid (150 micron mesh polyester screen PeCap from Tetko Inc). Test plants were maintained in the holding room at about 25° C. and 20-40% relative humidity for 3 days avoiding direct exposure to the fluorescent light (24 hour photoperiod) to prevent trapping of heat inside the cup. Mortality was assessed 3 days after treatment of the plants.

Data set [2] has as its system Brown Planthopper (Nilaparvata lugens). Put plainly: whole plant or invertebrate. It counts as in vivo. Conditions: in Oryza sativa, assessed 24, 48 and 72 hours after treatment, in comparison with untreated controls. As to the method:
II.5 Brown Planthopper (Nilaparvata lugens)
The active compounds were formulated as a 20:80 acetone:water solution. Surfactant (Alkamuls EL 620) was added at the rate of 0.1% (vol/vol).
Potted rice plants of 3-4 weeks of age are sprayed with 10 ml of the test solution using air driven hand atomizer (Devillbis atomizer) at 1.7 bar. The treated plants are allowed to dry for about 1 hour and covered with Mylar cages. The plants are inoculated with 10 adults of the specie (5 male and 5 females) and kept at 25-27° C. and 50-60% humidity for 3 days. Mortality is assed after 24, 48 and 72 hours after treatment. Dead insects are usually found in the water surface. Each treatment is replicated once.

Data set [3] relates to Mediterranean fruitfly (Ceratitis capitata). Conditions: eggs treated with 2500 ppm; 6 days. As to the method:
II.9 Activity against Mediterranean fruitfly (Ceratitis capitata)
50 to 80 eggs were placed into microtiterplates filled with 0.5% agar-agar and 14% diet in water. The eggs were sprayed with 5 μl of the test solution, the plates were sealed with pierced foils and kept at 27-29° C. and 75-85% humidity under fluorescent light for 6 days. Mortality was assessed on the basis of the agility of the hatched larvae. Tests were replicated 2 times.

Data set [4] deals with Cotton Aphid (Aphis gossypii). The data set can be described thus: whole plant or invertebrate. Conditions: 120 h. It counts as in vivo. The text has this:
• 2. Biological Examples II.1 Cotton Aphid (Aphis gossypii), Mixed Life Stages
The active compounds were formulated in 50:50 acetone: water and 100 ppm Kinetic® surfactant.
Cotton plants at the cotyledon stage (one plant per pot) were infested by placing a heavily infested leaf from the main colony on top of each cotyledon. The aphids were allowed to transfer to the host plant overnight, and the leaf used to transfer the aphids was removed. The cotyledons were dipped in the test solution and allowed to dry. After 5 days, mortality counts were made.

With `COc1ccc2c(c1)CC(NC(=S)NCCOC(=O)c1ccccc1)CC2` (centres unmarked) [compound 16, Benzoic acid 2-[3-(7-methoxy-1,2,3,4-tetrahydro-naphthalen-2-yl)-thioureido]-ethyl ester], in data set [1], the mortality (in general, the percentage killed) at 300 ppm was at least 50%.

`COc1ccc2c(c1)CC(NC(=S)NCCOC(C)=O)CC2` (centres unmarked) [compound 17, Acetic acid 2-[3-(7-methoxy-1,2,3,4-tetrahydro-naphthalen-2-yl)-thioureido]-ethyl ester]: the mortality at 300 ppm in data set [2] and in data set [1] was at least 50% each time.

Regarding `COc1ccc2c(c1)CC(NC(=S)NCCO)CC2` (centres unmarked) [compound 18], the mortality entry in data set [3] is listed as “at least 50%”.

On to `Clc1cccc2c1CC(NC1=NCCS1)CC2` (centres unmarked) [compound 2a, (8-Chloro-1,2,3,4-tetrahydro-naphthalen-2-yl)-(4,5-dihydro-thiazol-2-yl)-amine], for which, in data set [4], the mortality at 300 ppm is at least 50%.
